Measurements from paper PMC9098178, “SAR of Novel 3-Arylisoquinolinones: meta-Substitution on the Aryl Ring Dramatically Enhances Antiproliferative Activity through Binding to Microtubules” (Journal of Medicinal Chemistry, 2022).

Experiments:
Assay type in all cases: cell-based, human
HCT116 = experiment: SRB antiproliferative assay, HCT116; conditions: Homo sapiens, HCT-116, 96 h treatment, mean ± SEM, read-out: IC50 HCT116
Experimental: (§1) In light of this substantial change in activity between the meta and para compounds, a more comprehensive analysis of the antiproliferative activity was performed for the meta-/para-3-arylisoquinolinone pairs 2 and 3, 4, and 5, as well as 6. A panel of breast (MDA-MB-231), liver (HepG2, SNU423), lung (A549), and colon (HCT116) cancer cell lines were treated with the five 3-arylisoquinolinone analogs for 96 h followed by the SRB assay. The dose–response curves (including those for MCF-7) are presented in Figure S22, and their relevant IC50 values are listed in Table 1. […] The differential activity between meta- and para-3-arylisoquinolinones was reproduced in the National Cancer Institute (NCI) one-dose screen using a panel of 59 cancer cell lines (Figure S23).
(§2) All cell lines used in the study were human-derived and purchased from ATCC (Manassas, USA). Breast adenocarcinoma MCF-7 and MDA-MB-231 cell lines were cultured in DMEM. Hepatocellular carcinoma HepG2 and SNU423 cell lines were grown in MEME combined with 1% (v/v) nonessential amino acids and RPMI supplemented with 2 mM glutamine, respectively. Lung adenocarcinoma A549 and colorectal carcinoma HCT116 cells were grown in RPMI (+2 mM glutamine). All previous media were further supplemented with 10% heat-inactivated fetal bovine serum. The immortalized, normal liver THLE-3 cells were grown in BEGM (Lonza, Cat# CC-3170) onto precoated vessels according to ATCC’s instructions. Human umbilical vein endothelial cells (HUVECs) were cultured in EGM-2 (Lonza, Cat# CC-3162). All of the cells were maintained at 37 °C and 5% CO2 in a humidified incubator.
(§3) Screening of the antiproliferative activity of 3-arylisoquinolinones was performed using the SRB assay as previously described.[56] Exponentially growing HepG2, SNU423, MDA-MB-231, MCF-7, A549, HCT116, THLE-3, and HUVECs were seeded in 96-well plates at densities of 3000, 2000, 1500, 2500, 1000, 1000, 4000, and 4000 cells/well, respectively. These densities were experimentally selected so that the DMSO-treated cells (control) were approximately 80–90% confluent at the assay’s endpoint, and their optical density (OD) values fell within the assay’s linear range. After overnight incubation, the cells were treated with a range of concentrations of the respective compounds for 96 h, 24 h followed by 72 h compound-free incubation or 24 h (for HUVECs only). After treatment, cell monolayers were fixed with 10% (w/v) trichloroacetic acid for 1 h at 4 °C, washed, and dried. Then, the cells were exposed to 0.4% (w/v) SRB dye (prepared in 1% (v/v) acetic acid; Botium, Cat# 80100) for 15 min followed by several 1% acetic acid washing and then drying. Finally, the cellular protein-bound SRB was thoroughly dissolved in 10 mM Tris base, and the OD values were read at 510 nm using a plate reader (μQuant Microplate Spectrophotometer, Biotek, U.K.) coupled with Gen5 software (BioTek, U.K.). Compound-induced changes in cell growth were inferred from changes in OD values. Cell growth was calculated using the following formula: cell growth (%) = (ODtest/ODcontrol) × 100.

A549 = experiment: SRB antiproliferative assay, A549; conditions: Homo sapiens, A549, 96 h treatment, mean ± SEM, read-out: IC50 A549
Experimental: as §1, §2, §3

HepG2 = experiment: SRB antiproliferative assay, HepG2; conditions: Homo sapiens, HepG2, 96 h treatment, mean ± SEM, read-out: IC50 HepG2
Experimental: as §1, §2, §3

MDA-MB-231 = experiment: SRB antiproliferative assay, MDA-MB-231; conditions: Homo sapiens, MDA-MB-231, 96 h treatment, mean ± SEM, read-out: IC50 MDA-MB-231
Experimental: as §1, §2, §3

Measured: IC50

O=c1[nH]c(-c2ccc(F)cc2)cc2cc(F)ccc12 [compound 5, 6-Fluoro-3-(4-fluorophenyl)isoquinolin-1(2H)-one]
> 50 µM: all assays above
